The term IC50 denotes the midpoint of a concentration-inhibition curve. A word on the solubility: it is the dissolved amount per volume that the medium holds.

The source of these data is paper PMC7114883 (ACS Omega, 2020).

One series has as its target hERG channel (Homo sapiens, UniProt Q12809). Description: hERG channel inhibition. The series is classed as biochemical. For orientation: Block of hERG is tested as a sign of cardiac risk.
A further series is described as follows: Solubility at pH 6.8. As to conditions: pH 6.8, aqueous buffer. The series is classed as physicochemical.
Series [1] can be described thus: PAMPA parallel artificial membrane permeability assay. The series is classed as in vitro ADME. The settings on record: fraction absorbed. On the technique in general: PAMPA measures passive passage across an artificial lipid membrane.
The nature of series [2]: In vitro metabolic stability in mouse liver microsomes. The series is classed as in vitro ADME. A general note: Microsomes from liver hold many membrane-bound enzymes, among them those of drug oxidation.
Series [3] can be described thus: In vitro metabolic stability in human liver microsomes. The series is classed as in vitro ADME.
Another series has as its system P. falciparum NF54. Description: Pf NF54 activity determined at NITD. The series is classed as cell-based. The settings on record: Plasmodium falciparum, NF54, read-out: IC50 PfNF54.

Molecules are shown by their SMILES.

hERG channel, sequence (Q12809 whole entry): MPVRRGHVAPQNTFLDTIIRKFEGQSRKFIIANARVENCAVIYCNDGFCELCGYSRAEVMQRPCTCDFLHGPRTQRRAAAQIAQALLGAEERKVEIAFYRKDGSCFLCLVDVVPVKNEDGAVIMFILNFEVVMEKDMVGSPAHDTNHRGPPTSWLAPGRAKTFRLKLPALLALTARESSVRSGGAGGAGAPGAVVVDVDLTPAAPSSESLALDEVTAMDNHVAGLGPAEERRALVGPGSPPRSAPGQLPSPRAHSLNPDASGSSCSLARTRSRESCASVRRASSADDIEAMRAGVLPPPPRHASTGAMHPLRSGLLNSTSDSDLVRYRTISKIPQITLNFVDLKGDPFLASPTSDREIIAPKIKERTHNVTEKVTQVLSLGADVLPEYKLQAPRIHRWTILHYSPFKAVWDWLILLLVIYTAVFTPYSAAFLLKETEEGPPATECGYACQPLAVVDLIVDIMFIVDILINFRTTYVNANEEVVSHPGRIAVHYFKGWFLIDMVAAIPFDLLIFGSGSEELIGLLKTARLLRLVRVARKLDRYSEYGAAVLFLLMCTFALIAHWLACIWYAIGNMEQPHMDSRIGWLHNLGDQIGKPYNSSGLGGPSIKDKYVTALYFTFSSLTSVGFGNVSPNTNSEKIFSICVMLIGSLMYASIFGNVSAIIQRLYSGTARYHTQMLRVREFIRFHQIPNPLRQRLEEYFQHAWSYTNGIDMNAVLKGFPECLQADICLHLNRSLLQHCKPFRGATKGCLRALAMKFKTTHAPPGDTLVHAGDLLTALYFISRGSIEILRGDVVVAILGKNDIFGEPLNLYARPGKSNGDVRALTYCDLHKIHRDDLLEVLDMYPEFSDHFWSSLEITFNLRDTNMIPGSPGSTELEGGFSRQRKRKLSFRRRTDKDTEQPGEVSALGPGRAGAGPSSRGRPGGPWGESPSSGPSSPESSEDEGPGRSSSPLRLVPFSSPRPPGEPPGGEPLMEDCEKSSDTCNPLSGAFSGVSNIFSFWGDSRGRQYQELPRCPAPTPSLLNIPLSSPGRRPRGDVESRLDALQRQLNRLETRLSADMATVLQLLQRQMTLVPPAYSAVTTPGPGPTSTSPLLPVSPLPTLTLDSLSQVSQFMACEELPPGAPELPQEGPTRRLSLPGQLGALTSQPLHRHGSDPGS

As for `c1ccc(Cn2c(N3CCNCC3)nc3ccccc32)cc1` [Compound 1, Lerisetron, reference compound], the IC50 against hERG channel came to 320 nM; in the series on P. falciparum NF54, 810 nM. In “Solubility at pH 6.8”, this compound registered a solubility greater than 1000 µM. Also, the “PAMPA (%FA)” value in series [1] is recorded as 99 %FA. In series [2], the “In vitro metabolic stability in liver microsomes, mouse” value amounted to 29 µL/min/mg. Moreover, in series [3], the “In vitro metabolic stability in liver microsomes, human” value was 26.6 µL/min/mg.
